Laboratory results reported in ChEMBL document CHEMBL1201862, “PubChem BioAssay data set” (2004).
The source made the active and inactive calls.

Experiments:
INS1 = experiment: INS-1E survival protection against cytokine death – cell-based, luminescence, retest, dose response (AID 449756); format: functional; details: Rattus norvegicus;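 also: cell death triggered by IL-1 beta plus TNF-alpha plus IFN-gamma mixture; protective hits raise ATP signal compared with cytokine alone wells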
BJ = experiment: growth inhibition of engineered Ras-driven BJ cells – cell-based, alamar blue fluorescence, cherrypicked samples, dose response (AID 2631); format: functional; details: Homo sapiens;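 also: confirmatory dose-response assay in RAS-dependent BJ fibroblasts engineered with TERT, LT and ST, with cytotoxicity read by fluorescence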
Caspase-3 = biological target: T1, Caspase-3 (Homo sapiens, UniProt P42574); experiment: SAR Analysis of small molecule inhibitors of Sentrin-specific proteases (SENPs) using a Caspase-3 Selectivity assay. [Related pubchem assays (depositor defined):AID2540, AID2599, AID434973, AID489001]; format: functional
T1 sequence (P42574 whole entry): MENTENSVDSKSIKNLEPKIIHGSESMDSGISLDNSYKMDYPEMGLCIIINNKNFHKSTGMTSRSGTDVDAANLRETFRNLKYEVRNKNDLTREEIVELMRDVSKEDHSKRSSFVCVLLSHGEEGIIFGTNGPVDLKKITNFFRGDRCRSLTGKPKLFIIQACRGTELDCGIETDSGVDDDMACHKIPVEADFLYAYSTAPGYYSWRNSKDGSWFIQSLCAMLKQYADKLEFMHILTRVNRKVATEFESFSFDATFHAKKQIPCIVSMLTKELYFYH

[1] = biological target: T2, Sentrin-specific protease 8 (Homo sapiens, UniProt Q96LD8); experiment: inhibition of human SENP8 cleavage activity – biochemical, luminescence, SAR follow-up (AID 504501); format: functional
T2 sequence (Q96LD8 whole entry): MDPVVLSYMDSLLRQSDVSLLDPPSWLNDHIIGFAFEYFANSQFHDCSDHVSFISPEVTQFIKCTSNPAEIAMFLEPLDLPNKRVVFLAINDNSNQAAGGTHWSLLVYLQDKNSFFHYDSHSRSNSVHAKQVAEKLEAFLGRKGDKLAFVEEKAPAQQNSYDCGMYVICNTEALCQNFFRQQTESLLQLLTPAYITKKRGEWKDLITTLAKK

[2] = biological target: T3, Sentrin-specific protease 6 (Homo sapiens, UniProt Q9GZR1); experiment: SAR Analysis of small molecule inhibitors of Sentrin-specific protease 6 (SENP6) using a Luminescent assay. [Related pubchem assays (depositor defined):AID2582, AID2599]; format: functional
T3 sequence (Q9GZR1 whole entry): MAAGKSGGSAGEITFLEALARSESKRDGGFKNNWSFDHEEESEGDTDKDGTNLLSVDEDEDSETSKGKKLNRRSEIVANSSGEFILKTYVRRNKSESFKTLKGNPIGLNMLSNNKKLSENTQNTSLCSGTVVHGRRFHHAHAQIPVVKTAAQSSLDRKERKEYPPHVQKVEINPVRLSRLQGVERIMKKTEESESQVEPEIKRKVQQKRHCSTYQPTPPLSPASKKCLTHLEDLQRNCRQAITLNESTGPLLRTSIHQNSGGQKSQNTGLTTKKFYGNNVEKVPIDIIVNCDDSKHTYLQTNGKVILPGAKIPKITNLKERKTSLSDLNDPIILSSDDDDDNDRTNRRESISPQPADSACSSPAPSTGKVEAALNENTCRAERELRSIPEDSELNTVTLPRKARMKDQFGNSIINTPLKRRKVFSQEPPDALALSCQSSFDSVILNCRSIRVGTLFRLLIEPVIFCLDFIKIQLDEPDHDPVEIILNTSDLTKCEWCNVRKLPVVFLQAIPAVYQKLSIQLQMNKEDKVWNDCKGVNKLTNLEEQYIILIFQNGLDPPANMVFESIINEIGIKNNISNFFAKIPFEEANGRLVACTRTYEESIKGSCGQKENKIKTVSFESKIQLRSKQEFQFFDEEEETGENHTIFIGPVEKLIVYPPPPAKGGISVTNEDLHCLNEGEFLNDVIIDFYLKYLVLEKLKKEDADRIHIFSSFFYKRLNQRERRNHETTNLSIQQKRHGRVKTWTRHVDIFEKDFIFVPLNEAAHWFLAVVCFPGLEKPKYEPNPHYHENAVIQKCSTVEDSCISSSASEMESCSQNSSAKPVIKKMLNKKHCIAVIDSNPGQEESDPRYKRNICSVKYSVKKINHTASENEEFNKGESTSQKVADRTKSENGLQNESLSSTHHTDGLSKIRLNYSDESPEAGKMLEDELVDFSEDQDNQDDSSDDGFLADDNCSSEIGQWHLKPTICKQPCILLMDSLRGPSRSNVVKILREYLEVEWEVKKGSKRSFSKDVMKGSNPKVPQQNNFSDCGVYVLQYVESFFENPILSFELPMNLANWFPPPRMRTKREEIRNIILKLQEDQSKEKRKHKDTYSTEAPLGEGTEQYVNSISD

[3] = biological target: T4, Sentrin-specific protease 7 (Homo sapiens, UniProt Q9BQF6); experiment: inhibition of human SENP7 cleavage activity – biochemical, luminescence, SAR follow-up (AID 504497); format: functional
T4 sequence (Q9BQF6 whole entry): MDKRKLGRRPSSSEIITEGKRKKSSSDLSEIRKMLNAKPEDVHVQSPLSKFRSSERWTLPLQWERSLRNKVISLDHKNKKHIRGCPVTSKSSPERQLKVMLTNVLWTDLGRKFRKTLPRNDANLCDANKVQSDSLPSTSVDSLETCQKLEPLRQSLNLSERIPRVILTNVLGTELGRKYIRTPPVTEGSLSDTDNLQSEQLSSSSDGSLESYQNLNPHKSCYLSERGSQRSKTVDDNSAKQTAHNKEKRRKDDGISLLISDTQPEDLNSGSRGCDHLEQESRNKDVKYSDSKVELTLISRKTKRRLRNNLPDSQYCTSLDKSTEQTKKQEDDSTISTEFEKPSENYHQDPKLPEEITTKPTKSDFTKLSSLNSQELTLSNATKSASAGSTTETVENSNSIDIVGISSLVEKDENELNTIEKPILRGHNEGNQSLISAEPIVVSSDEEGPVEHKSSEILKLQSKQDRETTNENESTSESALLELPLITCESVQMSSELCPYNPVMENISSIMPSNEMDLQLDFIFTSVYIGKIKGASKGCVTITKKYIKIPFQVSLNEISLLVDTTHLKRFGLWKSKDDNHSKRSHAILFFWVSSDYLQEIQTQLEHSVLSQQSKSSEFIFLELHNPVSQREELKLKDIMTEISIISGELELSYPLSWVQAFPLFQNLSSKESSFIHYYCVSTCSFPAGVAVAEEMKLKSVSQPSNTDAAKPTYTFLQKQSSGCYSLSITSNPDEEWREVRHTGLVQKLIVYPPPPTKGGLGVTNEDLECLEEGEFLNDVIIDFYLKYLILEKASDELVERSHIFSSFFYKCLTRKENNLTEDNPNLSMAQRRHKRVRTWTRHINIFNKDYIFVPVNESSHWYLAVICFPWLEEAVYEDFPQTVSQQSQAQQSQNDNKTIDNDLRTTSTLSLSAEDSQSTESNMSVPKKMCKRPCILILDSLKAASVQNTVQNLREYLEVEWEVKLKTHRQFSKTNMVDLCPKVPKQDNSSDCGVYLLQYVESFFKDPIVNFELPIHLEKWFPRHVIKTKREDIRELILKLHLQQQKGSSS

Trypsin = Trypsin (Sus scrofa, UniProt P00761); experiment: trypsin protease activity blockade – biochemical, quenched peptide fluorescence, cherry-pick, selectivity assay for Rce1 protease inhibitor project, dose response (AID 488789)
CAAX prenyl protease 2 = biological target: T5, CAAX prenyl protease 2 (Homo sapiens, UniProt Q9Y256); experiment: inhibition of Ras-converting CAAX protease Rce1 – biochemical, yeast membranes, quenched-peptide fluorescence, cherry-pick, dose response (AID 588849)
T5 sequence (Q9Y256 whole entry): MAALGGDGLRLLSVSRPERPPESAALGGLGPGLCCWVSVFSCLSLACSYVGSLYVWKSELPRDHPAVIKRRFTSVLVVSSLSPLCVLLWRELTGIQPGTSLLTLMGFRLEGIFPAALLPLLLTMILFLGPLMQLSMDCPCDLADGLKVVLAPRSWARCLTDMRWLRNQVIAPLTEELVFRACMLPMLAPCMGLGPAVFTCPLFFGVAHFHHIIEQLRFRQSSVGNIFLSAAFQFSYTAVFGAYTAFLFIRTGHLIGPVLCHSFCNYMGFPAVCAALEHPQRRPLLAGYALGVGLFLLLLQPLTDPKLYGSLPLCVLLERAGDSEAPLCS

[4] = biological target: T6, Short transient receptor potential channel 4 (Mus musculus, UniProt Q9QUQ5); experiment: calcium entry via TRPC4 opening agents – cell-based, HEK293 TRPC4/mu-opioid, Fluo-4 calcium, dose response (AID 434937); format: functional
T6 sequence (Q9QUQ5 whole entry): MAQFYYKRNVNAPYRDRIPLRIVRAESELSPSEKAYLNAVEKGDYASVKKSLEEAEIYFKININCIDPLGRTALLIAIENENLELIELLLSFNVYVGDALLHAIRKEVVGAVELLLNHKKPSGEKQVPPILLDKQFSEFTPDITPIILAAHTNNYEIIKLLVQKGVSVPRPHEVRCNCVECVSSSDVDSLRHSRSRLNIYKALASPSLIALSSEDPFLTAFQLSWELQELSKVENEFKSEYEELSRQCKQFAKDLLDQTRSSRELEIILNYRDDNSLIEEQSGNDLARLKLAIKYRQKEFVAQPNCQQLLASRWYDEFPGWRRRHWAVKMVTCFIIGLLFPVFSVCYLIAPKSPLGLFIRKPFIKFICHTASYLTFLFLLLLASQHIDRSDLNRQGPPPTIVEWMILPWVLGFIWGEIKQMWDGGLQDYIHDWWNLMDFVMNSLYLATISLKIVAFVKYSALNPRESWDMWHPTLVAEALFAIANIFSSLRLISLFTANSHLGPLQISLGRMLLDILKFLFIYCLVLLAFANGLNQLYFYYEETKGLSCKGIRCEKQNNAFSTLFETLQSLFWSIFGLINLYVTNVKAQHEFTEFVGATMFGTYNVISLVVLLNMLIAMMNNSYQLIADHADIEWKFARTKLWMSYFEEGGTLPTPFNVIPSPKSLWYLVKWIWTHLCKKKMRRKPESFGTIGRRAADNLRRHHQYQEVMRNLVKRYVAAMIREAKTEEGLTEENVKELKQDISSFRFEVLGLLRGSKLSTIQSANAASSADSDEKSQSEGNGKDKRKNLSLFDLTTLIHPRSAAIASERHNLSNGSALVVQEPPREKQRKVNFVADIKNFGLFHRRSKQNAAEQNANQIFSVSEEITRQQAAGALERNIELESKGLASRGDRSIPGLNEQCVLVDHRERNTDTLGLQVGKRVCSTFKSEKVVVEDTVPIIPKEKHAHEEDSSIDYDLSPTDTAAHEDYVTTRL

Mu-type opioid receptor = Mu-type opioid receptor (Homo sapiens, UniProt P35372); experiment: (§1) Counterscreen for agonists of heterodimerization of the mu 1 (OPRM1) and delta 1 (OPRD1) opioid receptors: Luminescence-based cell-based high throughput dose response assay to identify agonists of OPRM1 homodimerization.; format: functional
[5] = biological target: 5-hydroxytryptamine receptor 5A (Homo sapiens, UniProt P47898); experiment: Counterscreen for agonists of OPRM1-OPRD1 heterodimerization: luminescence-based cell-based high throughput dose response assay to identify agonists of 5-hydroxytryptamine (serotonin) 5A receptor (HTR5A). [Related pubchem assays (depositor defined):AID504326, AID504355, AID504692, AID504904, AID504905]; format: functional
[6] = biological target: Delta-type opioid receptor (Homo sapiens, UniProt P41143); experiment: as §1, with “of OPRD1” for “of OPRM1”, “homodimerization. [Related pubchem assays (depositor defined):AID504326, AID504355, AID504692, AID504904, AID504905]” for “homodimerization.”; format: functional
Chain of Delta-type opioid receptor (P41143 whole entry): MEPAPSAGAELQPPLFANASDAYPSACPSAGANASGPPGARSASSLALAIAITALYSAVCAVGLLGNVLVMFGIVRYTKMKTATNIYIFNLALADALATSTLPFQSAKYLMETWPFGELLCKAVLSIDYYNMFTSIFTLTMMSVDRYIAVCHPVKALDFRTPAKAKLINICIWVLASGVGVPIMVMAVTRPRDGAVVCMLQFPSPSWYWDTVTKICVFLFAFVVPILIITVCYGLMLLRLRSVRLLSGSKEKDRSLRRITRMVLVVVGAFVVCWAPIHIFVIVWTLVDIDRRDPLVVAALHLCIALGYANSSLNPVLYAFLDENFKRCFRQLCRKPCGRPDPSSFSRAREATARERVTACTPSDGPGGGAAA

Chain of Trypsin (P00761 whole entry): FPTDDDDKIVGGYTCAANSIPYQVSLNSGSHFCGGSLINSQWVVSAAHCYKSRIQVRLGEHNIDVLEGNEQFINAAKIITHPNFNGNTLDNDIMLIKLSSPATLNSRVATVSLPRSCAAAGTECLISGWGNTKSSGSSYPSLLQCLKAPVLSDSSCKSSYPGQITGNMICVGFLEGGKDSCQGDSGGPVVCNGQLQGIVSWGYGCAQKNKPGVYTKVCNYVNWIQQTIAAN
Chain of Mu-type opioid receptor (P35372 whole entry): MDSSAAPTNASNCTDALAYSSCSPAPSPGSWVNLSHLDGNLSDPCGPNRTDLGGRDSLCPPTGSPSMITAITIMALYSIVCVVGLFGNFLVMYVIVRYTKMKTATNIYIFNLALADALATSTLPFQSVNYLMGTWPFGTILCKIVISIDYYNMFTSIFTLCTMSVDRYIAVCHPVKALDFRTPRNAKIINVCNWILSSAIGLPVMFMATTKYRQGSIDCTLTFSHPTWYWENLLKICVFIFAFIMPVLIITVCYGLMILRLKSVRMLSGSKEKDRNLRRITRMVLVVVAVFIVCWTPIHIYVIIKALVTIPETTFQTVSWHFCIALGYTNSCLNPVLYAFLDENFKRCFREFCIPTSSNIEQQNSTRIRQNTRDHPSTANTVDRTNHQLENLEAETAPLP
Chain of 5-hydroxytryptamine receptor 5A (P47898 whole entry): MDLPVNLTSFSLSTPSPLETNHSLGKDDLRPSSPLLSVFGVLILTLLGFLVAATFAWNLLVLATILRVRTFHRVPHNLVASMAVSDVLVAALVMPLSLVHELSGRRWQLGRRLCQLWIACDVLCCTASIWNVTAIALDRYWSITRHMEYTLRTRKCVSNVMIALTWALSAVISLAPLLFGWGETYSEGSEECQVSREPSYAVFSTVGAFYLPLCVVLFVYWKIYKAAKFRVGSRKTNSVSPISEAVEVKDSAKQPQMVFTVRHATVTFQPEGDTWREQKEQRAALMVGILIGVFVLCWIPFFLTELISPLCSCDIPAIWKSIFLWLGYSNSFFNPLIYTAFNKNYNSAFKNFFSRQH

| Compound | IC50 (Caspase-3) | IC50 [2] | IC50 [3] | AC50 (Trypsin) | AC50 (CAAX prenyl protease 2) | IC50 [1] | further results |
| --- | --- | --- | --- | --- | --- | --- | --- |
| OC(c1cc(-c2ccc(Cl)cc2)nc2ccccc12)C1CCCCN1 (stereo not drawn) | – | – | – | – | – | – | AC50 (INS1): 12.2 µM (active); EC50 (BJ): > 133 µM (inactive) |
| CN(C)c1ccc(/C=N/NC(=O)C(O)c2ccc(Br)cc2)cc1 (stereo not drawn) | – | – | – | 2.8 µM (active) | 2.17 µM (active) | – | – |
| CN(C)C(CN=C(S)Nc1cccc(Cl)c1)c1ccccc1 (stereo not drawn) | – | – | – | – | – | – | EC50 [4]: 0.596 µM (active); EC50 (Mu-type opioid receptor): 4.64 µM (active); EC50 [5]: > 92.5 µM (inactive); EC50 [6]: 11.5 µM (inactive) |
| Cc1cc(C)n2cc(CSC3=NCCS3)nc2n1 | – | – | – | 8.5 µM (active) | 8.53 µM (active) | – | – |

Now from value to molecule, other results behind:

| IC50 (Caspase-3) | IC50 [2] | IC50 [3] | AC50 (Trypsin) | AC50 (CAAX prenyl protease 2) | Compound | IC50 [1] | further results |
| --- | --- | --- | --- | --- | --- | --- | --- |
| 1.3 µM (active) | 2.01 µM (active) | 1.96 µM (active) | – | – | Clc1ccccc1-c1nnc(/C=C/c2cccs2)o1 | 2.06 µM (active) | – |
| 1.1 µM (active) | 1.3 µM (active) | 1.3 µM (active) | – | – | CSc1ccc(/C=C/c2noc(-c3ccccc3O)n2)cc1 | 1.3 µM (active) | – |
